# Assay results as given in PubChem BioAssay AID1259407 (Chemical Carcinogenesis Research Information System (CCRIS), 2018).
# Calls of active or inactive are those of the source. How the calls were made is not given here.
# System: CCRIS mutagenicity, Ames/micronucleus/aberration tests
# Test: CCRIS mutagenicity studies
# [1] = Test System: AMES SALMONELLA TYPHIMURIUM, Strain/Indicator: TA97, Metabolic Activation: NONE, Method: PREINCUBATION
# [2] = Test System: AMES SALMONELLA TYPHIMURIUM, Strain/Indicator: TA98, Metabolic Activation: NONE, Method: STANDARD PLATE
# [3] = Test System: AMES SALMONELLA TYPHIMURIUM, Strain/Indicator: TA100, Metabolic Activation: NONE, Method: STANDARD PLATE
# [4] = Test System: AMES SALMONELLA TYPHIMURIUM, Strain/Indicator: TA100, Metabolic Activation: RAT, LIVER, S-9, AROCLOR 1254, Method: STANDARD PLATE
smiles,measurement,setting,value
CCCCCCCCCCCCCCCCCCN,mutagenic call,"Test System: AMES SALMONELLA TYPHIMURIUM, Strain/Indicator: TA97, Metabolic Activation: HAMSTER, LIVER, S-9, AROCLOR 1254 (10 OR 30%), Method: PREINCUBATION",inactive; negative
same,mutagenic call,[1],inactive; negative
same,mutagenic call,"Test System: AMES SALMONELLA TYPHIMURIUM, Strain/Indicator: TA97, Metabolic Activation: RAT, LIVER, S-9, AROCLOR 1254 (10 OR 30%), Method: PREINCUBATION",inactive; negative
same,mutagenic call,"Test System: AMES SALMONELLA TYPHIMURIUM, Strain/Indicator: TA98, Metabolic Activation: HAMSTER, LIVER, S-9, AROCLOR 1254 (10 OR 30%), Method: PREINCUBATION",inactive; negative
same,mutagenic call,"Test System: AMES SALMONELLA TYPHIMURIUM, Strain/Indicator: TA98, Metabolic Activation: NONE, Method: PREINCUBATION",inactive; negative
same,mutagenic call,"Test System: AMES SALMONELLA TYPHIMURIUM, Strain/Indicator: TA98, Metabolic Activation: RAT LIVER S-9, PHENOBARBITAL AND BETA-NAPHTHOFLAVONE, Method: PREINCUBATION",inactive; negative
same,mutagenic call,"Test System: AMES SALMONELLA TYPHIMURIUM, Strain/Indicator: TA98, Metabolic Activation: RAT, LIVER, S-9, AROCLOR 1254 (10 OR 30%), Method: PREINCUBATION",inactive; negative
same,mutagenic call,"Test System: AMES SALMONELLA TYPHIMURIUM, Strain/Indicator: TA100, Metabolic Activation: HAMSTER, LIVER, S-9, AROCLOR 1254 (10 OR 30%), Method: PREINCUBATION",inactive; negative
same,mutagenic call,"Test System: AMES SALMONELLA TYPHIMURIUM, Strain/Indicator: TA100, Metabolic Activation: NONE, Method: PREINCUBATION",inactive; negative
same,mutagenic call,"Test System: AMES SALMONELLA TYPHIMURIUM, Strain/Indicator: TA100, Metabolic Activation: RAT LIVER S-9, PHENOBARBITAL AND BETA-NAPHTHOFLAVONE, Method: PREINCUBATION",inactive; negative
same,mutagenic call,"Test System: AMES SALMONELLA TYPHIMURIUM, Strain/Indicator: TA100, Metabolic Activation: RAT, LIVER, S-9, AROCLOR 1254 (10 OR 30%), Method: PREINCUBATION",inactive; negative
same,mutagenic call,"Test System: AMES SALMONELLA TYPHIMURIUM, Strain/Indicator: TA1535, Metabolic Activation: HAMSTER, LIVER, S-9, AROCLOR 1254 (10 OR 30%), Method: PREINCUBATION",inactive; negative
same,mutagenic call,"Test System: AMES SALMONELLA TYPHIMURIUM, Strain/Indicator: TA1535, Metabolic Activation: NONE, Method: PREINCUBATION",inactive; negative
same,mutagenic call,"Test System: AMES SALMONELLA TYPHIMURIUM, Strain/Indicator: TA1535, Metabolic Activation: RAT LIVER S-9, PHENOBARBITAL AND BETA-NAPHTHOFLAVONE, Method: PREINCUBATION",inactive; negative
same,mutagenic call,"Test System: AMES SALMONELLA TYPHIMURIUM, Strain/Indicator: TA1535, Metabolic Activation: RAT, LIVER, S-9, AROCLOR 1254 (10 OR 30%), Method: PREINCUBATION",inactive; negative
same,mutagenic call,"Test System: AMES SALMONELLA TYPHIMURIUM, Strain/Indicator: TA1537, Metabolic Activation: NONE, Method: PREINCUBATION",inactive; negative
same,mutagenic call,"Test System: AMES SALMONELLA TYPHIMURIUM, Strain/Indicator: TA1537, Metabolic Activation: RAT LIVER S-9, PHENOBARBITAL AND BETA-NAPHTHOFLAVONE, Method: PREINCUBATION",inactive; negative
same,mutagenic call,"Test System: E.COLI, Strain/Indicator: WP2UVRA/PKM101, Metabolic Activation: NONE, Method: PREINCUBATION",inactive; negative
same,mutagenic call,"Test System: E.COLI, Strain/Indicator: WP2UVRA/PKM101, Metabolic Activation: RAT LIVER S-9, PHENOBARBITAL AND BETA-NAPHTHOFLAVONE, Method: PREINCUBATION",inactive; negative
CC1CS(=O)(=O)CCN1/N=C/c1ccc([N+](=O)[O-])o1 (stereo not drawn),mutagenic call,"Test System: AMES SALMONELLA TYPHIMURIUM, Strain/Indicator: TA97, Metabolic Activation: NONE, Method: STANDARD PLATE",active; positive
same,mutagenic call,[2],inactive; negative
same,mutagenic call,[3],active; positive
same,mutagenic call,[4],active; positive
same,mutagenic call,"Test System: AMES SALMONELLA TYPHIMURIUM, Strain/Indicator: TA102, Metabolic Activation: NONE, Method: STANDARD PLATE",active; positive
CCCCCCCCCCCCCCCC(=O)OC[C@H](O)[C@H]1OC(=O)C(O)=C1O,mutagenic call,[1],inactive; negative
same,mutagenic call,"Test System: AMES SALMONELLA TYPHIMURIUM, Strain/Indicator: TA97, Metabolic Activation: RAT, LIVER, S-9, AROCLOR 1254, Method: PREINCUBATION",inactive; negative
same,mutagenic call,[2],inactive; negative
same,mutagenic call,"Test System: AMES SALMONELLA TYPHIMURIUM, Strain/Indicator: TA98, Metabolic Activation: RAT, LIVER, S-9, AROCLOR 1254, Method: STANDARD PLATE",inactive; negative
same,mutagenic call,[3],inactive; negative
same,mutagenic call,[4],inactive; negative
same,mutagenic call,"Test System: AMES SALMONELLA TYPHIMURIUM, Strain/Indicator: TA102, Metabolic Activation: NONE, Method: PREINCUBATION",inactive; negative
same,mutagenic call,"Test System: AMES SALMONELLA TYPHIMURIUM, Strain/Indicator: TA102, Metabolic Activation: RAT, LIVER, S-9, AROCLOR 1254, Method: PREINCUBATION",inactive; negative
same,mutagenic call,"Test System: AMES SALMONELLA TYPHIMURIUM, Strain/Indicator: TA1535, Metabolic Activation: NONE, Method: STANDARD PLATE",inactive; negative
same,mutagenic call,"Test System: AMES SALMONELLA TYPHIMURIUM, Strain/Indicator: TA1535, Metabolic Activation: RAT, LIVER, S-9, AROCLOR 1254, Method: STANDARD PLATE",inactive; negative
same,mutagenic call,"Test System: AMES SALMONELLA TYPHIMURIUM, Strain/Indicator: TA1537, Metabolic Activation: NONE, Method: STANDARD PLATE",inactive; negative
same,mutagenic call,"Test System: AMES SALMONELLA TYPHIMURIUM, Strain/Indicator: TA1537, Metabolic Activation: RAT, LIVER, S-9, AROCLOR 1254, Method: STANDARD PLATE",inactive; negative
same,mutagenic call,"Test System: AMES SALMONELLA TYPHIMURIUM, Strain/Indicator: TA1538, Metabolic Activation: NONE, Method: STANDARD PLATE",inactive; negative
same,mutagenic call,"Test System: AMES SALMONELLA TYPHIMURIUM, Strain/Indicator: TA1538, Metabolic Activation: RAT, LIVER, S-9, AROCLOR 1254, Method: STANDARD PLATE",inactive; negative
same,mutagenic call,"Test System: E. COLI, Strain/Indicator: WP2, Metabolic Activation: NONE, Method: STANDARD PLATE",inactive; negative
same,mutagenic call,"Test System: E. COLI, Strain/Indicator: WP2, Metabolic Activation: RAT, LIVER, S-9, AROCLOR 1254, Method: STANDARD PLATE",inactive; negative
O=[N+]([O-])c1ccc2c(ccc3cc4c(ccc5ccccc54)cc32)c1,mutagenic call,"Test System: AMES SALMONELLA TYPHIMURIUM, Strain/Indicator: TA98(1,8-DNP6), Metabolic Activation: NONE",active; positive
same,mutagenic call,"Test System: AMES SALMONELLA TYPHIMURIUM, Strain/Indicator: TA98(1,8-DNP6), Metabolic Activation: RAT, LIVER, S-9, AROCLOR 1254",active; positive
same,mutagenic call,"Test System: AMES SALMONELLA TYPHIMURIUM, Strain/Indicator: TA98(NR), Metabolic Activation: NONE",active; positive
same,mutagenic call,"Test System: AMES SALMONELLA TYPHIMURIUM, Strain/Indicator: TA98(NR), Metabolic Activation: RAT, LIVER, S-9, AROCLOR 1254",active; positive
same,mutagenic call,"Test System: AMES SALMONELLA TYPHIMURIUM, Strain/Indicator: TA98, Metabolic Activation: NONE",active; positive
same,mutagenic call,"Test System: AMES SALMONELLA TYPHIMURIUM, Strain/Indicator: TA98, Metabolic Activation: RAT, LIVER, S-9, AROCLOR 1254",active; positive
same,mutagenic call,"Test System: AMES SALMONELLA TYPHIMURIUM, Strain/Indicator: TA100(NR), Metabolic Activation: NONE",inactive; negative
same,mutagenic call,"Test System: AMES SALMONELLA TYPHIMURIUM, Strain/Indicator: TA100(NR), Metabolic Activation: RAT, LIVER, S-9, AROCLOR 1254",active; positive
same,mutagenic call,"Test System: AMES SALMONELLA TYPHIMURIUM, Strain/Indicator: TA100, Metabolic Activation: NONE",inactive; negative
same,mutagenic call,"Test System: AMES SALMONELLA TYPHIMURIUM, Strain/Indicator: TA100, Metabolic Activation: RAT, LIVER, S-9, AROCLOR 1254",active; positive
same,mutagenic call,"Test System: AMES SALMONELLA TYPHIMURIUM, Strain/Indicator: TA104, Metabolic Activation: NONE",inactive; negative
same,mutagenic call,"Test System: AMES SALMONELLA TYPHIMURIUM, Strain/Indicator: TA104, Metabolic Activation: RAT, LIVER, S-9, AROCLOR 1254",active; positive
Nc1nc2c(ncn2COCCO)c(=O)[nH]1,mutagenic call,"End Point: IN VITRO CHROMOSOMAL ABERRATIONS, Test System: CHO CELLS (CHO-HSVTK), Metabolic Activation: NONE",active; positive (structural changes); concentration chosen also induced apoptosis
